Legend:
[1] = system: Caco-2 (human colorectal adenocarcinoma); test: Alamar blue cytotoxicity assay, Caco-2; assay type: cell-based; details: for IC50: Caco-2, Alamar blue, 24-h incubation, mean ± S.E.M.
Source text: (§1) Human lung carcinoma (A549, ATCC® CCL-185™), human hepatocellular carcinoma (HepG2, ATCC® HB-8065™), and human breast adenocarcinoma (MDA-MB-231, ATCC® HTB-26™) were obtained from American Type Cell Collection (ATCC). Human melanoma (A-375, BCRJ-0278), Human colorectal adenocarcinoma (Caco-2, BCRJ 0059), human prostate adenocarcinoma (DU-145, BCRJ-0078, and PC-3, BCRJ-0269), human mouth fibroblast (FGH, BCRJ-0089), and human prostate epithelial cells (PNT-2, BCRJ-0366) were obtained from Rio de Janeiro Cells Bank (BCRJ). The cells A549, A-375, Caco-2, DU-145, HepG2, MDA-MB-231, and FGH were cultured in Dulbecco’s Modified Eagle’s Medium (DMEM, Gibco-Invitrogen®), PC-3 and PNT-2 cells were grown in Roswell Park Memorial Institute Medium (RPMI-1640, Gibco-Invitrogen®). Both mediums were supplemented according to the needs of each lineage, as recommended by its cell banks with 2 mM L-glutamine (Gibco-Invitrogen®), 10% or 20% fetal bovine serum (Gibco-Invitrogen®), 1% antibiotic-antimycotic solution (5 mg/ml penicillin, 5 mg/ml streptomycin, and 10 mg/ml neomycin, Gibco-Invitrogen®), and 3.7 g/L of NaHCO3 (Sigma-Aldrich). All cell lines were cultured in flasks at 37°C in 5% CO2 and 96% of relative humidity according to the procedures proposed by ([31]), and a mycoplasma stain kit (Sigma-Aldrich) was used to confirm the use of cells devoid of contamination. The assays were conducted between the third and the seventh-cell passage with sub-cultures every 3 to 4 days to maintain exponential growth. The cell viability was checked using the trypan blue dye exclusion assay for all experiments where over 95% of the cells were viable at the beginning of the tests.
(§2) The in vitro antiproliferative activity was quantified using the Alamar blue® assay, according to the method reported by ([32]). Cells were seeded in 96-well plates for all experiments (1.5 × 10^4 cells/well). After 24 h, the complexes were dissolved in DMSO and added to each well and incubated for 24 h. Dilutions of the complexes were prepared to obtain concentrations ranging from 0.3 to 100 μM. […] DMSO (0.1% v/v) was used as the vehicle control. Following 24 h of incubation, 50 μl of Alamar blue® (resazurin at 0.01% w/v, Sigma-Aldrich) was added to each well, and the plates were incubated, at 37°C, in the dark. Fluorescence reading was performed in a Synergy H1 Fluorescence Spectrophotometer (BioTek®), using excitation and emission filters at wavelengths of 560 and 590 nm, respectively. The fluorescence intensity was measured in arbitrary fluorescence units (AFU) and the AFU of untreated cells (CTL) was considered 100%. The cytotoxic effects of the compounds were estimated in terms of cell proliferation inhibition (%) and expressed as half-maximal inhibitory concentration (IC50). The cell proliferation inhibition percentage of cells exposed to treatments was calculated following: % Inhibition = 100 − (AFU of treated well/AFU of control well) × 100). The IC50 values were calculated from the cell proliferation inhibition percentage by nonlinear regression method using CompusSyn® Software.

[2] = system: DU-145 (human prostate adenocarcinoma); test: Alamar blue cytotoxicity assay, DU-145; assay type: cell-based; details: for IC50: DU-145, Alamar blue, 24-h incubation, mean ± S.E.M.
Source text: as §1, §2

[3] = system: DU-145 MCTSs; test: 3D multicellular tumor spheroids (MCTSs) culture; assay type: cell-based, human; details: for IC50: 3D spheroids, 24 h, Alamar blue, read-out: IC50 against the DU-145 MCTSs
Experimental: Multicellular tumor spheroids (MCTSs) were obtained according to the method reported by ([33]). Briefly, 200 μl of a solution of DU-145 cells (2.0 × 10^3 cells/well) were inserted in agarose-coated 96-well plates (1.5% w/v) and cultured in complete medium plus 3% Matrigel® (Corning). DU-145-MCTSs with stable structures had formed after five days. […] Negative control received the vehicle (DMSO 0.1% v/v) that was used for diluting the compounds tested. Finally, the MCTS proliferation inhibition (%) and IC50 were determined by Alamar blue® assay as described above. To investigate morphological changes other MCTSs were treated with 0.25, 0.5, 1.0, 1.5, and 2.0 μM of complex (2) and examined for 7 days. Spheroid integrity and diameter of MCTSs were analyzed by phase-contrast microscopy (Inverted Trinocular Microscope Opton TNB-O5T-PL) using AxioVision LE software (Carl Zeiss, Germany).

[4] = system: A549 (human lung carcinoma); test: Alamar blue cytotoxicity assay, A549; assay type: cell-based; details: for IC50: A549, Alamar blue, 24-h incubation, mean ± S.E.M.
Source text: as §1, §2

[5] = system: PNT-2 (human prostate epithelial cells); test: Alamar blue cytotoxicity assay, PNT-2 non-cancer cells; assay type: cell-based; details: 24-h incubation, mean ± S.E.M.
Source text: as §1, §2

[6] = system: MDA-MB-231 (human breast adenocarcinoma); test: Alamar blue cytotoxicity assay, MDA-MB-231; assay type: cell-based; details: for IC50: MDA-MB-231, Alamar blue, 24-h incubation, mean ± S.E.M.
Source text: as §1, §2

[7] = system: A-375 (human malignant melanoma); test: Alamar blue cytotoxicity assay, A-375; assay type: cell-based; details: for IC50: A-375, Alamar blue, 24-h incubation, mean ± S.E.M.
Source text: as §1, §2

[8] = Partition coefficient (n-octanol/water), shake-flask method; assay type: physicochemical; details: 24 h, 37°C, triplicate
Experimental: The octanol-water partition coefficients (log P) were quantified using the shake-flask method ([30]). Each complex was tested in a mixture of equal volumes of water and n-octanol with continuous shaking for 24 h at 112g and 37°C. Then the samples were centrifuged for 5 min at 10g, and the organic and aqueous phases were separated. The concentration of complex in each phase was measured spectrophotometrically to determine values of […]. The experiments were carried out in triplicate.

[9] = SI = IC50[FGH]/IC50[MDA-MB-231]
[10] = SI = IC50[PNT-2]/IC50[MDA-MB-231]

SMILES	IC50 [1]	Selectivity index (SI) ([1]; SI = IC50[FGH]/IC50[Caco-2])	Selectivity index (SI) ([1]; SI = IC50[PNT-2]/IC50[Caco-2])	IC50 [2]	Selectivity index (SI) ([2]; SI = IC50[FGH]/IC50[DU-145])	Selectivity index (SI) ([2]; SI = IC50[PNT-2]/IC50[DU-145])	IC50 [3]	IC50 [4]	Selectivity index (SI) ([4]; SI = IC50[FGH]/IC50[A549])	Selectivity index (SI) ([4]; SI = IC50[PNT-2]/IC50[A549])	IC50 [5]	IC50 [6]	Selectivity index (SI) [6, 9]	Selectivity index (SI) [6, 10]	IC50 [7]	Selectivity index (SI) ([7]; SI = IC50[FGH]/IC50[A-375])	Selectivity index (SI) ([7]; SI = IC50[PNT-2]/IC50[A-375])	log P(o/w) [8]	further results
CC(C)=CCC1=C([O-])C(=O)c2ccccc2C1=O.F[P-](F)(F)(F)(F)F.[Ru+2].c1ccc(-c2ccccn2)nc1.c1ccc(P(CP(c2ccccc2)c2ccccc2)c2ccccc2)cc1 [complex (1), [Ru(Lap)(dppm)(bipy)]PF6]	2000 ± 600 nM	1.5	2.9	900 ± 200 nM	3.4	6.5	2400 nM	3300 ± 400 nM	0.9	1.8	5900 ± 2100 nM	2100 ± 400 nM	1.5	2.8	2500 ± 600 nM	1.2	2.4	0.617 ± 0.014	
CC(C)=CCC1=C([O-])C(=O)c2ccccc2C1=O.F[P-](F)(F)(F)(F)F.[Ru+2].c1ccc(P(CP(c2ccccc2)c2ccccc2)c2ccccc2)cc1.c1cnc2c(c1)ccc1cccnc12 [complex (2), [Ru(Lap)(dppm)(phen)]PF6]	1200 ± 300 nM	2.0	5.7	800 ± 100 nM	3.1	8.5	1900 nM	2600 ± 100 nM	1.0	2.6	6800 ± 1500 nM	2000 nM	1.2	3.4	900 ± 300 nM	2.7	7.5	0.839 ± 0.007	cell viability with ROS scavenger NAC ([2]; DU-145, cotreatment with 5 mM NAC, 24 h, Alamar blue): prevented the reduction of cell viability; total spheroid area over time ([3]; DU-145 MCTSs treated with 0.25-2.0 μM, examined for 7 days): decrease in the total spheroid area; more potent than cisplatin (fold) ([3]; DU-145 MCTSs, IC50 ratio vs cisplatin): ≥ 32 fold

From PMC8264259, “A Novel Ruthenium(II) Complex With Lapachol Induces G2/M Phase Arrest Through Aurora-B Kinase Down-Regulation and ROS-Mediated Apoptosis in Human Prostate Adenocarcinoma Cells” (Frontiers in Oncology, 2021)
